# Columns and labels:
# [1] = system: membrane potential of pig heart mitochondria; assay: Mitochondrial membrane potential assay (JC-10) in pig heart mitochondria; type: biochemical; conditions: JC-10, 5 min incubation
# Excerpt: Next we analyzed the mechanism of action of DS16570511. The previous studies implicated two possible inhibitory mechanisms for the mitochondrial Ca^2+ uptake: (1) direct blockade of the calcium uniporter and (2) disruption of the membrane potential.[20],[21] Mitochondrial Ca^2+ uptake is mediated by electrical potential across the mitochondrial inner membrane, which is generated by the oxidative phosphorylation system. […] To examine effects on the mitochondrial membrane potential, fluorescent indicator JC-10 was used in mitochondria from pig heart.
# (a) Effect of FCCP on Ca^2+ uptake of pig heart mitochondria. […] Relative membrane potential 0 or 100% is defined as value of 1 μM FCCP-treated mitochondria or vehicle-treated mitochondria, respectively. Data are mean with S.E.M. from three (a) or four (b) independent samples.
# Pig heart mitochondria were prepared as described above and suspended in the swelling buffer containing 1 μM JC-10. The protein concentration of the solution was 5 mg/ml. Five minutes after incubation of the mitochondria with DS16570511 at room temperature, fluorescence intensities were measured by a FlexStation 3 (Molecular Devices, LLC, Sunnyvale, CA, USA) using the green channel (excitation/emission wavelength: 485/538 nm) or the red channel (excitation/emission wavelength: 485/612 nm).
# [2] = target: T1, mitochondrial calcium uniporter (Homo sapiens, UniProt Q8NE86); assay: Ca2+ uptake of isolated mitochondria from HEK293A cells (aequorin luminescence); type: biochemical; design: isolated mitochondria from HEK293A cells were used; endogenous in cells; host or cells: mitochondria isolated from HEK293A cells stably expressing mitochondria-targeted aequorin
# T1 sequence (Q8NE86 51-351): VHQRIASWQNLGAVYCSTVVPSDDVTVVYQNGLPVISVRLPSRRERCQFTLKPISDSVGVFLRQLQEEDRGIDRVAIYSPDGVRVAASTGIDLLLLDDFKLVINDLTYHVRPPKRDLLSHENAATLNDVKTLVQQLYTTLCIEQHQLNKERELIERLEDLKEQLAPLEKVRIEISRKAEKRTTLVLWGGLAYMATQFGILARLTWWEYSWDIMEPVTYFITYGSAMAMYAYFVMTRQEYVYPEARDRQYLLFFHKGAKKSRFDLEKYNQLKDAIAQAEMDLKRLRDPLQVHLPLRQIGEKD
# T1 sequence (Q9H4I9 48-107 partner limits assumed): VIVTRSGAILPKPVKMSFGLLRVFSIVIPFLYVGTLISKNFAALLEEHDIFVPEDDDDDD
# Procedure: Mitochondrial Ca^2+ uptake activity is regulated by cytosolic protein kinase signaling,[19] raising the possibility that HTS hits contained indirect inhibitors of the uniporter, such as inhibitors of cytosolic signaling. To examine the direct inhibitory effect of the compounds on the mitochondrial Ca^2+ uptake, isolated mitochondria from HEK293A cells were used. Ca^2+ uptake of the isolated mitochondria was observed as a rapid increase in the luminescence level after application of 100 μM Ca^2+ (Figure 2a).
# Figure 2 DS16570511 inhibits Ca^2+ uptake in isolated mitochondria from HEK293A cells. (a) Representative raw data of Ca^2+ uptake in isolated mitochondria. (b) Effect of DS16570511 or Ru360 on mitochondrial Ca^2+ uptake. The area under the curve of temporal aequorin activities is used for calculation of inhibitory activities. Inhibition 0 or 100% is defined as a value of […], respectively. Data are mean with S.E.M. from three independent samples.
# To monitor Ca^2+ uptake activity of isolated mitochondria, mitochondria were prepared from the cells (1×10^8 cells) stably expressing mitochondria-targeted aequorin by using a mitochondria isolation kit. […] The luminescence levels were detected as described above.
# Hela cells = system: Hela cells; design: method as in PMID 17471180; conditions: cited from earlier work
# [3] = system: Ca2+ uptake of pig heart mitochondria; assay: Ca2+ uptake assay using isolated pig heart mitochondria (atomic absorbance spectrometer); type: biochemical; conditions: 100 μM CaCl2
# Procedure: (§1) We then asked whether DS16570511 inhibits Ca^2+ uptake in isolated mitochondria from animal heart. An atomic absorbance spectrometer-based detection method was employed to analyze intramitochondrial Ca^2+ levels. We prepared freshly isolated mitochondria from pig heart, and the mitochondria were incubated with 100 μM CaCl2.
# (§2) (a) Effect of RuR on Ca^2+ uptake of pig heart mitochondria. […] Data are mean with S.E.M. from three independent samples. (b) Inhibition rate of RuR or DS16570511 on Ca^2+ uptake of pig heart mitochondria. Inhibition 0 or 100% is defined as a value of Ca^2+-untreated mitochondria or Ca^2+-treated mitochondria, respectively. Data are mean with S.E.M. from three independent samples. (c) Inhibition rate of RuR or DS16570511 on Ca^2+ uptake of rat heart mitochondria. Data are mean with S.E.M./variation from three or two independent samples for DS16570511 or RuR, respectively.
# Mitochondria were isolated by using the mitochondria isolation kit and then dissolved in the swelling buffer. The protein concentration of the mitochondrial solution was 5 mg/ml. Thirty minutes after application of CaCl2 (final concentration of 100 μM) to the solution, the mitochondria were collected by centrifugation (3000 g) at 4 °C. The pellets were resuspended in the swelling buffer containing 1 μM RuR. After collection of the mitochondria by centrifugation (3000 g), the pellets were dried and dissolved by 40 μl of sulfuric acid at 95 °C.
# [4] = system: Ca2+ uptake of rat heart mitochondria; assay: Ca2+ uptake assay using isolated rat heart mitochondria (atomic absorbance spectrometer); type: biochemical; conditions: 100 μM CaCl2; read-out: IC50, inhibition of Ca2+ uptake of rat heart mitochondria
# Procedure: as §1
# as §2, with “Figure 3 DS16570511 inhibits Ca^2+ uptake in isolated heart mitochondria. (a)” for “(a)”
# Mitochondria were isolated by using the mitochondria isolation kit and then dissolved in the swelling buffer. The protein concentration of the mitochondrial solution was 5 mg/ml. […] The solution was then diluted by water, and Ca^2+ concentration of the solution was measured by atomic absorbance spectrometer (Hitachi High-Technologies Corporation, Z-2710, Tokyo, Japan).
# [5] = system: recombinant MCU multimers; design: method as in PMID 26285678; conditions: lipid bilayer; cited from earlier work
# cultured myocytes = system: cultured myocytes; design: method as in PMID 22425903; conditions: cited from earlier work
compound,measurement,setting,value
"N.N.N.N.N.N.N.N.O=C[O-].O=C[O-].[O-2].[Ru+3].[Ru+4] [Ru360, Ruthenium 360, reference compound]",effect on mitochondrial membrane potential,[1],no effect
same,IC50,[2],20 nM
"N#CC(C#N)=NNc1ccc(OC(F)(F)F)cc1 [FCCP, carbonyl cyanide-p-trifluoromethoxyphenylhydrazone]",effect on mitochondrial membrane potential,[1],disruption of the potential in a dose-dependent manner
N=C(N)SCCc1ccc(OCc2ccc([N+](=O)[O-])cc2)cc1 [KB-R7943],effect on agonist-induced mitochondrial Ca2+ influx,Hela cells,inhibit
"N.N.N.N.N.N.N.N.N.N.N.N.N.N.[Cl-].[Cl-].[Cl-].[Cl-].[Cl-].[Cl-].[O-2].[O-2].[Ru+3].[Ru+3].[Ru+4] [RuR, Ruthenium Red]",effect on Ca2+ uptake activity of isolated pig heart mitochondria (in words),[3],fully blocked
same,IC50,"[3]; read-out: IC50, inhibition of Ca2+ uptake of pig heart mitochondria",30 nM
same,IC50,[4],100 nM
same,effect on Ca2+ channel activity mediated by recombinant MCU multimers,[5],inhibited
CS(=O)(=O)O.CS(=O)(=O)O.O=S1(=O)CCN(Cc2cc(NCC3CCOCC3)c3[nH]c(-c4ccccc4)cc3c2)CC1 [NecroX-5],effect on Ca2+ accumulation,cultured myocytes,attenuate

# — publication PMC5511861, “DS16570511 is a small-molecule inhibitor of the mitochondrial calcium uniporter” (Cell Death Discovery, 2017)
